Data on 5 compounds can be found in PubChem BioAssay AID1259407 (Chemical Carcinogenesis Research Information System (CCRIS), 2018).

Each structure is given as a SMILES string. The source made the active and inactive calls. The rule behind the calls is not given here.

In the data set the test system is CCRIS mutagenicity, Ames/micronucleus/aberration tests. The experiment in a line: CCRIS mutagenicity studies.
[1] abbreviates: Test System: AMES SALMONELLA TYPHIMURIUM, Strain/Indicator: TA98, Metabolic Activation: NONE, Method: PREINCUBATION
Setting [2] is: Test System: AMES SALMONELLA TYPHIMURIUM, Strain/Indicator: TA102, Metabolic Activation: NONE, Method: STANDARD PLATE.
Setting [3] is: Test System: AMES SALMONELLA TYPHIMURIUM, Strain/Indicator: TA98, Metabolic Activation: NONE, Method: STANDARD PLATE.
[4] abbreviates: Test System: AMES SALMONELLA TYPHIMURIUM, Strain/Indicator: TA100, Metabolic Activation: NONE, Method: STANDARD PLATE.

Take `CC(=O)CC(=O)Nc1ccc(C)cc1`: the mutagenic call reads like this: under setting [1], “inactive; negative”; (Test System: AMES SALMONELLA TYPHIMURIUM, Strain/Indicator: TA98, Metabolic Activation: RAT, LIVER, S-9, PHENOBARBITAL AND BETA-NAPHTHOFLAVONE, Method: PREINCUBATION) “inactive; negative”; (Test System: AMES SALMONELLA TYPHIMURIUM, Strain/Indicator: TA100, Metabolic Activation: NONE, Method: PREINCUBATION) “inactive; negative”; (Test System: AMES SALMONELLA TYPHIMURIUM, Strain/Indicator: TA100, Metabolic Activation: RAT, LIVER, S-9, PHENOBARBITAL AND BETA-NAPHTHOFLAVONE, Method: PREINCUBATION) “inactive; negative”; (Test System: AMES SALMONELLA TYPHIMURIUM, Strain/Indicator: TA102, Metabolic Activation: NONE, Method: PREINCUBATION) “inactive; negative”; under setting [2], “inactive; negative”. In addition, the mutagenic call runs as follows: (Test System: AMES SALMONELLA TYPHIMURIUM, Strain/Indicator: TA102, Metabolic Activation: RAT, LIVER, S-9, PHENOBARBITAL AND BETA-NAPHTHOFLAVONE, Method: PREINCUBATION) “inactive; negative”; (Test System: AMES SALMONELLA TYPHIMURIUM, Strain/Indicator: TA104, Metabolic Activation: NONE, Method: PREINCUBATION) “inactive; negative”; (Test System: AMES SALMONELLA TYPHIMURIUM, Strain/Indicator: TA104, Metabolic Activation: RAT, LIVER, S-9, PHENOBARBITAL AND BETA-NAPHTHOFLAVONE, Method: PREINCUBATION) “inactive; negative”; (Test System: AMES SALMONELLA TYPHIMURIUM, Strain/Indicator: TA1535, Metabolic Activation: NONE, Method: PREINCUBATION) “inactive; negative”; (Test System: AMES SALMONELLA TYPHIMURIUM, Strain/Indicator: TA1535, Metabolic Activation: RAT, LIVER, S-9, PHENOBARBITAL AND BETA-NAPHTHOFLAVONE, Method: PREINCUBATION) “inactive; negative”; (Test System: AMES SALMONELLA TYPHIMURIUM, Strain/Indicator: TA1537, Metabolic Activation: NONE, Method: PREINCUBATION) “inactive; negative”. The mutagenic call is, setting by setting: (Test System: AMES SALMONELLA TYPHIMURIUM, Strain/Indicator: TA1537, Metabolic Activation: RAT, LIVER, S-9, PHENOBARBITAL AND BETA-NAPHTHOFLAVONE, Method: PREINCUBATION) “inactive; negative”; (Test System: AMES SALMONELLA TYPHIMURIUM, Strain/Indicator: TA2638, Metabolic Activation: NONE, Method: STANDARD PLATE) “inactive; negative”; (Test System: E. COLI, Strain/Indicator: WP2 (PKM101), Metabolic Activation: NONE, Method: STANDARD PLATE) “inactive; negative”; (Test System: E. COLI, Strain/Indicator: WP2 UVRA (PKM101), Metabolic Activation: NONE, Method: STANDARD PLATE) “inactive; negative”; (Test System: E. COLI, Strain/Indicator: WP2UVRA/PKM101, Metabolic Activation: NONE, Method: PREINCUBATION) “active; positive”; (Test System: E. COLI, Strain/Indicator: WP2UVRA, Metabolic Activation: NONE, Method: PREINCUBATION) “inactive; negative”. The mutagenic call (Test System: E. COLI, Strain/Indicator: WP2UVRA, Metabolic Activation: RAT, LIVER, S-9, PHENOBARBITAL AND BETA-NAPHTHOFLAVONE, Method: PREINCUBATION) was “inactive; negative”.

Consider `O=S(=O)(O)Oc1ccc2cc3ccc4cccc5ccc(c2c1)c3c45`, for which the mutagenic call under setting [1] was “inactive; negative” and the mutagenic call (Test System: AMES SALMONELLA TYPHIMURIUM, Strain/Indicator: TA98, Metabolic Activation: RAT, LUNG, S-9, Method: PREINCUBATION) is “inactive; negative”.

For `c1cc[c]([Sn]([c]2ccccc2)([c]2ccccc2)[c]2ccccc2)cc1`, the mutagenic call was “inactive; negative” (Test System: AMES SALMONELLA TYPHIMURIUM, Strain/Indicator: TA98, Metabolic Activation: NONE, Method: SUSPENSION/PLATE) and “inactive; negative” (Test System: AMES SALMONELLA TYPHIMURIUM, Strain/Indicator: TA100, Metabolic Activation: NONE, Method: SUSPENSION/PLATE).

For `Nc1ccc(-c2ccc(N)c(F)c2)cc1F`, the mutagenic call was “active; positive” (Test System: AMES SALMONELLA TYPHIMURIUM, Strain/Indicator: TA98(1,8-DNP6), Metabolic Activation: HAMSTER, LIVER, S-9, Method: PREINCUBATION); “active; positive” (Test System: AMES SALMONELLA TYPHIMURIUM, Strain/Indicator: TA98(1,8-DNP6), Metabolic Activation: NONE, Method: PREINCUBATION); “active; positive” (Test System: AMES SALMONELLA TYPHIMURIUM, Strain/Indicator: TA98(1,8-DNP6), Metabolic Activation: NONE, Method: STANDARD PLATE); “active; positive” (Test System: AMES SALMONELLA TYPHIMURIUM, Strain/Indicator: TA98(1,8-DNP6), Metabolic Activation: S-9, Method: STANDARD PLATE); “active; positive” (Test System: AMES SALMONELLA TYPHIMURIUM, Strain/Indicator: TA98, Metabolic Activation: HAMSTER, LIVER, S-9, Method: PREINCUBATION); “active; positive” under setting [1]. Moreover, the mutagenic call is “active; positive” under setting [3]; “active; positive” (Test System: AMES SALMONELLA TYPHIMURIUM, Strain/Indicator: TA98, Metabolic Activation: S-9, Method: STANDARD PLATE); “inactive; negative” under setting [4]; “active; positive” (Test System: AMES SALMONELLA TYPHIMURIUM, Strain/Indicator: TA100, Metabolic Activation: S-9, Method: STANDARD PLATE).

For `Cc1cc(Cl)ccc1OC(C)C(=O)O` (stereo unspecified), the mutagenic call by setting is: (Test System: AMES SALMONELLA TYPHIMURIUM, Strain/Indicator: TA97, Metabolic Activation: NONE, Method: STANDARD PLATE) “inactive; negative”; (Test System: AMES SALMONELLA TYPHIMURIUM, Strain/Indicator: TA97, Metabolic Activation: RAT, LIVER, S-9, AROCLOR 1254, Method: STANDARD PLATE) “inactive; negative”; under setting [3], “inactive; negative”; (Test System: AMES SALMONELLA TYPHIMURIUM, Strain/Indicator: TA98, Metabolic Activation: RAT, LIVER, S-9, AROCLOR 1254, Method: STANDARD PLATE) “inactive; negative”; under setting [4], “inactive; negative”; (Test System: AMES SALMONELLA TYPHIMURIUM, Strain/Indicator: TA100, Metabolic Activation: RAT, LIVER, S-9, AROCLOR 1254, Method: STANDARD PLATE) “inactive; negative”. The mutagenic call runs as follows: under setting [2], “inactive; negative”; (Test System: AMES SALMONELLA TYPHIMURIUM, Strain/Indicator: TA102, Metabolic Activation: RAT, LIVER, S-9, AROCLOR 1254, Method: STANDARD PLATE) “inactive; negative”.
